{"source": "paper PMC10689081", "about": "(BMB Reports, 2023)", "key": {"SARS-CoV-2 Mpro": {"test_system": "SARS-CoV-2 Mpro", "assay_type": "biochemical"}, "Mpro dimer": {"test_system": "Mpro dimer", "set-up": "species or system SARS-CoV-2"}, "Solubility in water": {"assay": "Solubility in water", "assay_type": "physicochemical", "conditions": "Supplementary Fig. 4"}, "[1]": {"conditions": "Superose-12 10/300, 0.5 ml/min, buffer D pH 7.5, 298 K (Fig. 1B)"}}, "note": "Entries after “also recorded” stand apart in the source; their conditions may differ."}
{"sequence": "SGFRKMAFPS [N10]", "values": [{"measurement": "inhibition of Mpro activity (in words)", "setting": "SARS-CoV-2 Mpro; N10, 1 μM Mpro, 0-500 μM N10, 10 μM substrate, 298 K", "value": "also shows inhibitory activity; also recorded: can inhibit the Mpro activity; also recorded: could inhibit the proteolytic activity of Mpro"}, {"measurement": "inhibitory activity of N10 compared with GC376 (in words)", "setting": "SARS-CoV-2 Mpro; sub-millimolar concentrations (Fig. 2B)", "value": "weaker than that of GC376"}, {"measurement": "disruption of dimer conformation (conclusion in words)", "setting": "Mpro dimer", "value": "disrupted the dimer conformation"}, {"measurement": "shift of Mpro dimer peak on adding N10", "setting": "Mpro dimer; Superose-12 10/300, 0.5 ml/min, 50 mM Tris-HCl pH 7.5, 1 M NaCl, 10% Glycerol, 1 mM DTT, 298 K (Fig. 1B)", "value": "shifted the Mpro dimer peak into a smaller size; also recorded: from dimer to a smaller size, a presumably monomer"}, {"measurement": "height of the delayed shifted peak compared to the original peak", "setting": "Mpro dimer; [1]", "value": "half-size in height"}, {"measurement": "shape of the peak of Mpro with N10", "setting": "Mpro dimer; [1]", "value": "overlapped shape of two peaks of primary and shoulder; also recorded: overlapped uneven two peaks of primary and shoulder"}, {"measurement": "solubility in water", "setting": "Solubility in water", "value": "soluble in water"}]}
